Read-outs that look alike come from different tables or passages of the source.
How the values were obtained:
Format in all cases: cell-based
T47D [1] = experiment: cells; details: Homo sapiens, 120 h, read-out: T47D IC50
Protocol: (§1) Test Example 2 In vitro proliferation inhibition assay of the camptothecin derivatives (Payload) of the present invention on tumor cells 1. Instruments and Reagents
(§2) 2. Experimental Procedure • a. Plating & culture: MDA-MB-453 (purchased from: Xiehe, catalog number: 1101HUM-PUMCO00016)/T47D (Kebai, CBP60397)/HT1376 cells (purchased from: Kebai, catalog number: CBP60310) were cultured into 96-well plates by a density of 1×10^3 /2×10^3 /1×10^3 cells per100 µL, and 200 µL of PBS was added to the outermost circle (to reduce the volatilization of the culture medium), and cultured at 37°C, 5% CO2 incubator for 24 h; • b. Drug Addition & Incubation: The 96-well flat-bottom plate was retrieved. The culture medium in the wells was aspirated, and 100 µL of the ADC drug/payload (diluted in culture medium) was added to each well. The plate was then incubated at 37°C, 5% CO2 incubator for 5 days. 3. Detection and data processing • a. The 96-well plate was retrieved. The culture medium was removed, and 100 µL of detection reagent (CCK8:medium= 1:9) was added to each well. The plate was then placed in a 37°C, 5% CO2 incubator for 4 hours; • b. The optical density (OD) at 450 nm was measured using a microplate reader (model: CEY0017), and the data was recorded with Excel. • c. Graphpad Prism 9.0 was used to analyze and organize the data.

HT1376 = experiment: In vitro proliferation inhibition assay of camptothecin derivatives (Payload), Test Example 2; details: Homo sapiens, HT-1376, 120 h, read-out: HT1376 IC50
Protocol: as §1, §2

MDA-MB-453 [2] = experiment: as above; details: Homo sapiens, MDA-MB-453, 120 h, read-out: MDA-MB-453 IC50
Protocol: as §1, §2

T47D [3] = experiment: cells; details: Homo sapiens, 96 h
Excerpt: (§3) The control compounds used in the experiment were DXD (synthesized from EXD according to the synthesis method of patent EP2907824B1. EXD was purchased from MedChemExpress, catalog number: HY-13631A) and SN38 (purchased from Bide Pharmatech, catalog number BD8481). Their structural formulas are [drawing 515] respectively.
(§4) The cell lines used in this experiment were human breast cancer cells SK-BR-3, T47D, MDA-MB-453, human malignant melanoma cells A375, human lung squamous carcinoma cells NCI-H1703, and human gastric cancer cells NCI-N87. Cell suspensions were prepared in fresh cell culture medium containing 10% FBS and then diluted to a density of 5 × 10^4 cells/mL, 10×10^4 cells/mL, 100 µL per well was added to a 96-well cell culture plate (Thermo catalog number: 167425), and cultured at 37°C with 5% carbon dioxide for 24 h.
(§5) The test compounds of the present invention and the control compounds were each prepared to 10 mM stock solutions in DMSO, and the drugs were diluted with 5% FBS 1640 culture medium in a gradient of 50, 10, 2, 0.4, 0.08, 0.016, 0.0032, 0.00064, 0.000128, and 0 µM, with two replicates for each well.
(§6) 50 µL of cell supernatant was pipetted from each 96-well plate, followed by the addition of 50 µL of compound dilutions at final […] of 25, 5, 1, 0.2, 0.04, 0.008, 0.0016, 0.00032, 0.000064, and 0 µM. After mixing, the cells were cultured in a constant temperature CO2 incubator for 4 days. Cell supernatant was then added with 100 µL of detection reagent (5% FBS1640 medium and CCK-8 solution in a 10:1 ratio) and incubated in an incubator for 4 hours. […] was read on a microplate reader (TECAN, Spark), and data were analyzed using Graphpad Prism 8 software.

MDA-MB-453 [4] = experiment: In vitro proliferation inhibition assay of camptothecin derivatives (Payload), Test Example 1; details: Homo sapiens, MDA-MB-453, 96 h, read-out: MDA-MB-453 IC50
Excerpt: as §3, §4, §5, §6

NCI-N87 = experiment: as above; details: Homo sapiens, NCI-N87, 96 h, read-out: NCI-N87 IC50
Excerpt: as §3, §4, §5, §6

SK-BR-3 = experiment: as above; details: Homo sapiens, SK-BR-3, 96 h, read-out: SK-BR-3 IC50
Excerpt: as §3, §4, §5, §6

NCI-H1703 = experiment: as above; details: Homo sapiens, NCI-H1703, 96 h, read-out: NCI-H1703 IC50
Excerpt: as §3, §4, §5, §6

A375 = experiment: as above; details: Homo sapiens, A-375, 96 h, read-out: A375 IC50
Excerpt: as §3, §4, §5, §6

[5] = payload, cultured 4 days, CCK-8
[6] = payload, cultured 4 days, CCK-8, read-out: T47D IC50
[7] = payload, cultured 4 days, CCK-8, ~ indicates estimated IC50 value

SMILES | IC50 (T47D [3]; read-out: T47D IC50) | IC50 (NCI-N87) | IC50 (SK-BR-3) | IC50 (NCI-N87; [5]) | IC50 (SK-BR-3; [5]) | IC50 (MDA-MB-453 [4]; [5]) | also measured
CC[C@@]1(O)C(=O)OCc2c1cc1n(c2=O)Cc2c-1nc1cc(F)c(C)c3c1c2[C@@H](N)CC3 [EXD, Exatecan, reference compound] | 0.729 nM | 1.45 nM | 0.866 nM | – | – | – | IC50 (T47D [1]): 0.221 nM; IC50 (HT1376): 8.71 nM; IC50 (MDA-MB-453 [2]): 0.902 nM; IC50 (MDA-MB-453 [4]): 1.02 nM; IC50 (NCI-H1703): 0.00789 nM
CCC1(OC(=O)Cc2ccc(OC3OC(CO)C(O)C(O)C3O)cc2)C(=O)OCc2c1cc1n(c2=O)Cc2c-1nc1cc(F)c(C)c3c1c2C(N)CC3 (stereo not drawn) [Compound 3] | – | 1.91 nM | 1.04 nM | – | – | – | –
CC[C@@]1(OC(=O)CCN2CCN(C)CC2)C(=O)OCc2c1cc1n(c2=O)Cc2c-1nc1cc(F)c(C)c3c1c2[C@@H](N)CC3 [Compound 2] | – | – | – | 3.75 nM | 1.56 nM | – | –
CC[C@@]1(OC(=O)COc2ccc(Cl)cc2C)C(=O)OCc2c1cc1n(c2=O)Cc2c-1nc1cc(F)c(C)c3c1c2[C@@H](N)CC3 [Compound 9] | – | – | – | – | – | 3.86 nM | IC50 (T47D [3]; [6]): 0.804 nM; IC50 (NCI-H1703; [5]): 0.149 nM
CC[C@@]1(OC(=O)Cn2cc(F)c(=O)[nH]c2=O)C(=O)OCc2c1cc1n(c2=O)Cc2c-1nc1cc(F)c(C)c3c1c2[C@@H](N)CC3 [Compound 6] | – | – | – | 2.23 nM | 1.23 nM | 4.24 nM | IC50 (T47D [3]; [6]): 0.742 nM; IC50 (A375; [7]): 0.164 nM; IC50 (NCI-H1703; [5]): 0.59 nM
CC[C@@]1(O)C(=O)OCc2c1cc1n(c2=S)Cc2cc3cc(N)c(F)cc3nc2-1 [Example 46] | – | 0.229 nM | 0.0155 nM | – | – | – | –
CC[C@@]1(OC(=O)CCN2C(=O)c3ccccc3C2=O)C(=O)OCc2c1cc1n(c2=O)Cc2c-1nc1cc(F)c(C)c3c1c2[C@@H](N)CC3 [Compound 4] | – | – | – | 381 nM | 183 nM | – | –
CC[C@@]1(O)C(=O)OCc2c1cc1n(c2=S)Cc2c-1nc1cc(F)c(C)cc1c2CNC(=O)CO [Compound 17] | 0.172 nM | 0.999 nM | 0.675 nM | – | – | – | IC50 (MDA-MB-453 [4]): 1.14 nM
CC[C@@]1(OC(=O)CCOCCOCCOCCOC)C(=O)OCc2c1cc1n(c2=O)Cc2c-1nc1cc(F)c(C)c3c1c2[C@@H](N)CC3 [Compound 7] | – | – | – | – | – | 570 nM | IC50 (T47D [3]; [6]): 245 nM; IC50 (A375; [7]): 0.714 nM; IC50 (NCI-H1703; [5]): 0.064 nM
CCc1c2c(nc3ccc(O)cc13)-c1cc3c(c(=O)n1C2)COC(=O)[C@]3(O)CC [SN38, SN-38, reference compound] | 2.11 nM | – | – | 5.38 nM | 2.51 nM | 32.8 nM | –
CC[C@@]1(O)C(=O)OCc2c1cc1n(c2=O)Cc2c-1nc1cc(F)c(C)c3c1c2[C@@H](NC(=O)CO)CC3 [DXD, Dxd, reference compound] | 1.02 nM | 5.97 nM | 3.62 nM | – | – | – | IC50 (MDA-MB-453 [4]): 2.87 nM; IC50 (A375): 0.131 nM; IC50 (NCI-H1703): 0.472 nM
CC[C@@]1(O)C(=O)OCc2c1cc1n(c2=S)Cc2c-1nc1cc(F)c(C)cc1c2CN [Compound 11] | – | 1.56 nM | 0.906 nM | – | – | – | IC50 (T47D [1]): 0.141 nM; IC50 (HT1376): 3.85 nM; IC50 (MDA-MB-453 [2]): 0.645 nM

— patent EP4711371A1 (priority 2023, dated 2024)
